One data set deals with Spodoptera frugiperda. As to the kind of experiment: Insecticidal activity test against Spodoptera frugiperda (leaf dip, maize seedlings). Format: in vivo. The settings on record: Spodoptera frugiperda, foliar. As for the experimental part: (§1) Various kinds of pests were tested with the compounds of this invention. Unless otherwise specified, the preparation method of samples and definition of the mortality rate of the insects in the embodiments and this invention are as follows: the preparation method of samples is to weigh 10 mg of the compound and dissolve it in 1 mL DMF to prepare 10,000 ppm mother liquid, which is diluted to necessary concentration by 0.05% Tween-80 water, respectively. The mortality rate is the mortality rate of pests under the test concentration, whose calculating formula is: mortality rate (%)=Number of dead pests/total pests*100
(§2) The leaf dip method was used to assay the insecticidal activity. Cut above ground part of fresh maize seedlings (about 10 cm). Dip the maize seedlings into the solution prepared with compound of this invention for 10 seconds and dry them in a cool environment. Then cut the dry maize seedlings into 3-5 cm leaf sections and put 3 leaf sections into each petri dish. Put ten of 3th-instar larvae of Spodoptera frugiperda into each dish, which was repeated by 3 times. Then the dishes were placed in an illumination incubator and incubated with 14 hL: 10 hD illumination at 25° C. Symptoms were investigated on the 1st, 2nd and 3rd day after treatment, and the mortality was calculated.

The subject of a further data set is Aphis craccivora. As to the kind of experiment: Insecticidal activity test against Aphis craccivora (broad bean leaf dip). Format: in vivo. The settings on record: Aphis craccivora, foliar; 40 ppm, 3rd day after treatment; read-out: insecticidal activity (mortality of Aphis craccivora). As for the experimental part: as §1
Cut a single leaf of broad bean with stem and insert it into a glass jar filled with water (capacity of 20 ml). Five adult Aphis craccivoras were seeded onto each leaf, and covered with plastic cups with holes. The adult aphids were removed after 24 hours. Before the experiment, the base number was investigated and the single leaf with more than 15 nymphs aphids was selected for the experiment. Dip leaf of broad bean with nymphs aphids into the solution of test compound 10s, take out and dry them in a cool environment, 3 parallel repeats. Place the glass jars on the shelf of observation room and covered with plastic cups with holes. 20-25° C. with 14 hL: 10 hD illumination. The number of Aphis craccivora death and alive was investigated on the 3rd day after treatment, and the mortality was calculated.

A further data set concerns Spodoptera litura. As to the kind of experiment: Insecticidal activity test against Spodoptera litura (leaf dip, cabbage leaf discs). Type of data set: in vivo. The settings on record: foliar, 0.4 ppm, 3rd day after treatment. Here is the method:
as §1
The leaf dip method was used to assay the insecticidal activity. Healthy and pesticide-untreated cabbage leaves was selected to prepare 1 cm of leaf discs by diameter. Dip the leaf discs into the solution prepared with compound of this invention for 10 seconds and dry them in a cool […] environment. Then place them in 24-well plate with 3 discs per pore. Put 10 of Spodoptera litura into each pore, which was repeated by 3 times. The 24-well plate was placed in an illumination incubator and incubated with 14 hL: 10 hD illumination at 25° C. The dead number of Spodoptera litura was investigated on the 3rd day after treatment, and the mortality was calculated.

In the next data set the test system is Mythimna separata. In words: Insecticidal activity test against Mythimna separata (leaf dip, maize seedlings). The settings on record: foliar. Type of data set: in vivo. As for the experimental part: as §1
as §2, with “Mythimna separatas” for “Spodoptera frugiperda”

Another data set concerns Chilo suppressalis. As to the kind of experiment: Insecticidal activity test against Chilo suppressalis (rice stem dip). Format: in vivo. As for the experimental part: as §1
The rice was cultivated in a plastic pot with a diameter of 9 cm and a height of 10 cm. When the rice grew to 25 cm, the aerial part of robust and consistent rice seedlings was selectively cut. Their leaves were removed and their stems of about 8 cm were kept for use. Pour the solution prepared with compound of this invention into the Petri dish (about 40 mL) and dip the rice stems into the solution for 10 seconds. Take rice stems out and dry them in a cool environment. Put a wet cotton ball at the bottom of finger-like glass tube and 5 rice stems in each tube. Put 10 of 3rd-instar larvae of Chilo suppressa into each tube, which was repeated by 3 times. Seal the tubes with black cotton cloth and tighten them with rubber band. The tubes were placed in a illumination incubator at 28° C. and incubated in the dark (incubated without light). The dead number of Chilo suppressalis was investigated 3 days after treatment. The mortality was calculated.

Molecules are shown by their SMILES. Like-named read-outs stand apart in the source and are kept apart here.

In the case of `N#Cc1ccc(C(=O)N(CC2CC2)c2cccc(C(=O)Nc3c(Br)cc(C(C(F)(F)F)C(F)(F)F)cc3OC(F)F)c2F)cc1` [Compound 26, N-(2-bromo-6-(difluoromethoxy)-4-(1,1,1,3,3,3-hexafluoropropan-2-yl)phenyl)-3-(4-cyano-N-(cyclopropylmethyl)benzamido)-2-fluorobenzamide], the melting point lay within 133.1 to 135.5 °C.

Regarding `O=C(Nc1c(Br)cc(C(F)(C(F)(F)F)C(F)(F)F)cc1OC(F)F)c1cccc(N(CC2CC2)C(=O)c2ccc(F)cc2)c1F` [Compound 31, N-(2-bromo-6-(difluoromethoxy)-4-(perfluoropropan-2-yl)phenyl)-3-(N-(cyclopropylmethyl)-4-fluorobenzamido)-2-fluorobenzamide], the mortality at 0.1 ppm worked out at 100% in the data set with Spodoptera frugiperda (24 h, read-out: Mortality (%) against Spodoptera frugiperda, 1 d); 100% in the data set on Spodoptera frugiperda (48 h, read-out: Mortality (%) against Spodoptera frugiperda, 2 d); 100% with Spodoptera frugiperda (72 h, read-out: Mortality (%) against Spodoptera frugiperda, 3 d). Also, the mortality at 1 ppm in the data set on Spodoptera frugiperda (read-out: insecticidal activity (mortality of Spodoptera frugiperda)) was no less than 90%; with Chilo suppressalis (3rd day after treatment, read-out: insecticidal activity (mortality of Chilo suppressalis)), no less than 90%; with Chilo suppressalis (72 h, 3 d, read-out: Mortality (%, 3 d) 1 ppm), 100%. Further, the mortality at 40 ppm in the data set on Aphis craccivora is no less than 90%. The same compound came in with a mortality at 0.4 ppm with Spodoptera litura of no less than 90%. Also, in the data set with Mythimna separata (0.04 ppm, 3rd day after treatment, read-out: insecticidal activity (mortality of Mythimna separate)), the mortality at 0.04 ppm is no less than 90%. The mortality at 0.01 ppm is 13.3% in the data set on Mythimna separata (24 h, 1 d, read-out: Mortality (%) 1 d); 63.3% with Mythimna separata (48 h, 2 d, read-out: Mortality (%) 2 d); 70% in the data set with Mythimna separata (72 h, 3 d, read-out: Mortality (%) 3 d). The mortality at 0.5 ppm in the data set on Chilo suppressalis (72 h, 0.5 ppm, 3 d) came out at 83.3%. The mortality at 2 ppm in the data set with Chilo suppressalis (72 h, 2 ppm, 3 d, read-out: Mortality (%, 3 d) 2 ppm) was determined as 100%.

Usually melting point stands for the temperature of the solid-liquid transition. The term mortality denotes the percentage killed.

The values are drawn from patent US20220081389A1, “AMIDE COMPOUNDS AND PREPARATION METHOD THEREFOR AND USE THEREOF” (CAC NANTONG CHEMICAL CO., LTD., priority 2019, published 2022).
